US20260167632A1, “NICOTINAMIDE DERIVATIVES FOR USE IN TREATING DISORDERS ASSOCIATED WITH KCNK13 ACTIVITY” (Cerevance, Inc., priority 2022, published 2026)

molecular target: T1, human KCNK13 (Homo sapiens, UniProt Q9HB14); test: KCNK13 antagonist activity, thallium flux FLIPR assay in HEK 293 cells stably expressing human KCNK13; type: cell-based; settings: HEK 293 cells stably expressing human KCNK13, Tl+ sensitive dye, compound 15 min before thallium sulfate, ten point curves; read-out: hKCNK13 IC50
T1 construct: expressed in transfected cells
T1 sequence (Q9HB14 1-408): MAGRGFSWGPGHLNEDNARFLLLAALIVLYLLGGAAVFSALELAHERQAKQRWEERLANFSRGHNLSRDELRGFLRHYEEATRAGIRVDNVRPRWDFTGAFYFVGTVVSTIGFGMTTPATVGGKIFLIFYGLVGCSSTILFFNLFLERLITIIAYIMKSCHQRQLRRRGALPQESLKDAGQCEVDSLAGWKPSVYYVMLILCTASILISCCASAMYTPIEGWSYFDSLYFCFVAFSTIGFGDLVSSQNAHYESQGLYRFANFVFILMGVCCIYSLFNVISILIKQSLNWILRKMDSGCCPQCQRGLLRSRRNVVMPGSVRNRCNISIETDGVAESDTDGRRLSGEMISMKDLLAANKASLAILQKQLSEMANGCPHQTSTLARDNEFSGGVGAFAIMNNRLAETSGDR
Protocol: 4. Biological Efficacy of Compounds of the Invention
KCNK13 antagonist activity was determined by measuring changes in intracellular Thallium (Tl^+) concentrations using a Tl^+ sensitive fluorescent dye. The changes in fluorescent signal were monitored by Fluorescent Imaging Plate Reader (FLIPR™) technology available from Molecular Devices, LLC, US. KCNK13 mediated increases in intracellular Tl^+ concentration were readily detected by addition of a thallium sulfate Stimulus. 24 hours prior to the assay, human embryonic kidney 293 cells (HEK 293 cells) stably expressing human KCNK13 were seeded in cell culture medium in PDL coated black, clear-bottom 384-well plates (commercially available from Corning Inc., 356663) and grown overnight at 37° C., […]. On the day of the assay, cell culture media was removed and cells were loaded with potassium dye (commercially sold by Molecular Devices, LLC, US, R8222) for 1 hour at room temperature in the dark. Test compounds (at 10 point half log concentration response curves from 100 µM) were added to cells for 15 minutes prior to the addition of thallium sulfate to all wells. The IC50 values were determined from ten point concentration response curves. Curves were generated using the average of two wells for each data point.

| Compound | IC50 [µM] |
| --- | --- |
| COc1ncc(F)cc1C(=O)N(C)C(C)c1ccccc1F (single isomer, unassigned) [Example 5, 5-fluoro-N-(1-(2-fluorophenyl)ethyl)-2-methoxy-N-methylnicotinamide] | ≤ 0.5 |
| COc1ncc(F)cc1C(=O)N(C)C(C)c1ccccc1F (single isomer, unassigned) [Example 6, 5-fluoro-N-(1-(2-fluorophenyl)ethyl)-2-methoxy-N-methylnicotinamide] | ≤ 0.5 |
| COc1ncc(F)cc1C(=O)N(C)C(C)c1cccc(F)c1 (single isomer, unassigned) [Example 7, 5-fluoro-N-(1-(3-fluorophenyl)ethyl)-2-methoxy-N-methylnicotinamide] | ≤ 0.2 |
| COc1ncc(F)cc1C(=O)N(C)C(C)c1cccc(F)c1 (single isomer, unassigned) [Example 8, 5-fluoro-N-(1-(3-fluorophenyl)ethyl)-2-methoxy-N-methylnicotinamide] | ≤ 0.2 |
| COc1ncc(F)cc1C(=O)N(C)C1CCc2ccc(F)cc21 (single isomer, unassigned) [Example 9, 5-fluoro-N-(6-fluoro-2,3-dihydro-1H-inden-1-yl)-2-methoxy-N-methylnicotinamide] | ≤ 1 |
| COc1ncc(F)cc1C(=O)N(C)C1CCc2ccc(F)cc21 (single isomer, unassigned) [Example 10, 5-fluoro-N-(6-fluoro-2,3-dihydro-1H-inden-1-yl)-2-methoxy-N-methylnicotinamide] | ≤ 0.5 |
| CCOc1ncc(Cl)cc1C(=O)N(C)C1CCc2ccccc21 (single isomer, unassigned) [Example 12, 5-chloro-N-(2,3-dihydro-1H-inden-1-yl)-2-ethoxy-N-methylnicotinamide] | ≤ 1 |
| CCOc1ncc(Cl)cc1C(=O)N(C)C1CCc2ccccc21 (single isomer, unassigned) [Example 13, 5-chloro-N-(2,3-dihydro-1H-inden-1-yl)-2-ethoxy-N-methylnicotinamide] | ≤ 0.5 |
| COc1ncc(F)cc1C(=O)N(C)C1CCOc2ccccc21 (single isomer, unassigned) [Example 14, N-(chroman-4-yl)-5-fluoro-2-methoxy-N-methylnicotinamide] | ≤ 0.5 |
| COc1ncc(F)cc1C(=O)N(C)C1CCOc2ccccc21 (single isomer, unassigned) [Example 15, N-(chroman-4-yl)-5-fluoro-2-methoxy-N-methylnicotinamide] | ≤ 0.5 |
| COc1ncc(F)cc1C(=O)N(C)C1CCc2ccccc21 (single isomer, unassigned) [Example 17, N-(2,3-dihydro-1H-inden-1-yl)-5-fluoro-2-methoxy-N-methylnicotinamide] | ≤ 0.5 |
| COc1ncc(Cl)cc1C(=O)N(C)C1CCOc2ccccc21 (single isomer, unassigned) [Example 18, 5-chloro-N-(chroman-4-yl)-2-methoxy-N-methylnicotinamide] | ≤ 0.5 |
| COc1ncc(Cl)cc1C(=O)N(C)C1CCOc2ccccc21 (single isomer, unassigned) [Example 19, 5-chloro-N-(chroman-4-yl)-2-methoxy-N-methylnicotinamide] | ≤ 0.5 |
| COc1ncc(Cl)cc1C(=O)N(C)C1CCc2ccc(F)cc21 (single isomer, unassigned) [Example 20, 5-chloro-N-(6-fluoro-2,3-dihydro-1H-inden-1-yl)-2-methoxy-N-methylnicotinamide] | ≤ 0.5 |
| COc1ncc(Cl)cc1C(=O)N(C)C1CCc2ccc(F)cc21 (single isomer, unassigned) [Example 21, 5-chloro-N-(6-fluoro-2,3-dihydro-1H-inden-1-yl)-2-methoxy-N-methylnicotinamide] | ≤ 0.2 |
| COc1ncc(Cl)cc1C(=O)N(C)C1CCc2ccccc21 (single isomer, unassigned) [Example 22, 5-chloro-N-(2,3-dihydro-1H-inden-1-yl)-2-methoxy-N-methylnicotinamide] | ≤ 0.5 |
| COc1ncc(Cl)cc1C(=O)N(C)C1CCc2ccccc21 (single isomer, unassigned) [Example 23, 5-chloro-N-(2,3-dihydro-1H-inden-1-yl)-2-methoxy-N-methylnicotinamide] | ≤ 0.5 |
| COc1ncc(Cl)cc1C(=O)N(C)C1COc2ccccc21 (single isomer, unassigned) [Example 25, 5-chloro-N-(2,3-dihydrobenzofuran-3-yl)-2-methoxy-N-methylnicotinamide] | ≤ 0.5 |

| Compound | IC50 [µM] |
| --- | --- |
| COc1ncc(Cl)cc1C(=O)N(C)C1COc2ccccc21 (single isomer, unassigned) [Example 26, 5-chloro-N-(2,3-dihydrobenzofuran-3-yl)-2-methoxy-N-methylnicotinamide] | ≤ 0.5 |
| COc1ncc(Cl)cc1C(=O)N(C)C1COc2ccccc21 (single isomer, unassigned) [Example 27, 5-chloro-N-(2,3-dihydrobenzofuran-3-yl)-2-methoxy-N-methylnicotinamide] | ≤ 0.5 |
| COc1ncc(Cl)cc1C(=O)N(C)C1CCOc2c(F)cccc21 (single isomer, unassigned) [Example 28, 5-chloro-N-(8-fluorochroman-4-yl)-2-methoxy-N-methylnicotinamide] | ≤ 0.5 |
| COc1ncc(Cl)cc1C(=O)N(C)C1CCOc2c(F)cccc21 (single isomer, unassigned) [Example 29, 5-chloro-N-(8-fluorochroman-4-yl)-2-methoxy-N-methylnicotinamide] | ≤ 0.5 |
| COc1ncc(F)cc1C(=O)N(C)C1CCOc2c(F)cccc21 (single isomer, unassigned) [Example 30, 5-fluoro-N-(8-fluorochroman-4-yl)-2-methoxy-N-methylnicotinamide] | ≤ 0.5 |
| COc1ncc(F)cc1C(=O)N(C)C1CCOc2c(F)cccc21 (single isomer, unassigned) [Example 31, 5-fluoro-N-(8-fluorochroman-4-yl)-2-methoxy-N-methylnicotinamide] | ≤ 1 |
| COc1ncc(Cl)cc1C(=O)N(C)C1COc2cc(F)ccc21 (single isomer, unassigned) [Example 45, 5-chloro-N-(6-fluoro-2,3-dihydrobenzofuran-3-yl)-2-methoxy-N-methylnicotinamide] | ≤ 5 |
| COc1ncc(Cl)cc1C(=O)N(C)C1COc2cc(F)ccc21 (single isomer, unassigned) [Example 46, 5-chloro-N-(6-fluoro-2,3-dihydrobenzofuran-3-yl)-2-methoxy-N-methylnicotinamide] | ≤ 1 |
| COc1ncc(Cl)cc1C(=O)N(C)C(C)c1cc(F)ccc1C#N (single isomer, unassigned) [Example 59, 5-chloro-N-(1-(2-cyano-5-fluorophenyl)ethyl)-2-methoxy-N-methylnicotinamide] | ≤ 0.5 |
| COc1ncc(Cl)cc1C(=O)N(C)C(C)c1cc(F)ccc1C#N (single isomer, unassigned) [Example 60, 5-chloro-N-(1-(2-cyano-5-fluorophenyl)ethyl)-2-methoxy-N-methylnicotinamide] | ≤ 5 |
| COc1ncc(F)cc1C(=O)N(C)C(C)c1cc(F)ccc1C#N (single isomer, unassigned) [Example 62, N-(1-(2-cyano-5-fluorophenyl)ethyl)-5-fluoro-2-methoxy-N-methylnicotinamide] | ≤ 1 |
| COc1ncc(F)cc1C(=O)N(C)C(C)c1cc(F)ccc1C#N (single isomer, unassigned) [Example 63, N-(1-(2-cyano-5-fluorophenyl)ethyl)-5-fluoro-2-methoxy-N-methylnicotinamide] | ≤ 1 |
| COc1ncc(F)cc1C(=O)N(C)C(C)c1ccc(F)cc1C#N (single isomer, unassigned) [Example 64, N-(1-(2-cyano-4-fluorophenyl)ethyl)-5-fluoro-2-methoxy-N-methylnicotinamide] | ≤ 5 |
| COc1ncc(F)cc1C(=O)N(C)C(C)c1ccc(F)cc1C#N (single isomer, unassigned) [Example 65, N-(1-(2-cyano-4-fluorophenyl)ethyl)-5-fluoro-2-methoxy-N-methylnicotinamide] | ≤ 1 |
| COc1ncc(Cl)cc1C(=O)N(C)C(C)c1ccc(F)cc1C#N (single isomer, unassigned) [Example 66, 5-chloro-N-(1-(2-cyano-4-fluorophenyl)ethyl)-2-methoxy-N-methylnicotinamide] | ≤ 5 |
| COc1ncc(Cl)cc1C(=O)N(C)C(C)c1ccc(F)cc1C#N (single isomer, unassigned) [Example 67, 5-chloro-N-(1-(2-cyano-4-fluorophenyl)ethyl)-2-methoxy-N-methylnicotinamide] | ≤ 0.5 |
| COc1ncc(F)cc1C(=O)N(C)C(C)c1ccc(F)cc1F (single isomer, unassigned) [Example 68, N-(1-(2,4-difluorophenyl)ethyl)-5-fluoro-2-methoxy-N-methylnicotinamide] | ≤ 5 |
